Values after ≈ are worked out from the molar mass of the structure shown.
Tests used:
HEK293 = experiment: cells; format: functional, Homo sapiens, ATCC CRL1573; details: Homo sapiens, ATCC CRL1573, HEK293; ASSAY_TEST Inhibition of Cell Viability; detection method Resazurin; Fluorescence (ex560/em590); MEDIA DMEM with 10% FBS; plate type 384well; TC; CORNING #3712; time 18 hr; read-out: CC50
Pseudomonas aeruginosa [1] = experiment: Antibacterial activity against Pseudomonas aeruginosa PAO397 [PAO1 d(mexAB-oprM) d(mexCD-oprJ) d(mexEF-oprN) d(mexJKL) d(mexXY) d(opmH)] (CO-ADD:GN_211); MIC in CAMBH media using NBS plates, by OD(600); format: functional; details: ASSAY_TEST Inhibition of Bacterial Growth, detection method Absorption (OD600), MEDIA CAMHB, plate type 384well, CORNING #3640, time 18 hr
Staphylococcus aureus = experiment: microbe, parasite or virus in culture; details: ATCC 43300, 18 h, ASSAY_TEST Inhibition of Bacterial Growth, detection method Absorption (OD600), MEDIA CAMHB, plate type 384well, NBS, CORNING #3640
Description: Antibacterial activity against Staphylococcus aureus MRSA ATCC 43300 (CO-ADD:GP_020); MIC in CAMBH media, using NBS plates, by OD(600)

Escherichia coli = experiment: microbe, parasite or virus in culture; details: ATCC 25922, 18 h, ASSAY_TEST Inhibition of Bacterial Growth, detection method Absorption (OD600), MEDIA CAMHB, plate type 384well, NBS, CORNING #3640
Description: Antibacterial activity against Escherichia coli ATCC 25922 (CO-ADD:GN_001); MIC in CAMBH media using NBS plates, by OD(600)

Klebsiella pneumoniae = experiment: microbe, parasite or virus in culture; details: ATCC 700603, 18 h, ASSAY_TEST Inhibition of Bacterial Growth, detection method Absorption (OD600), MEDIA CAMHB, plate type 384well, NBS, CORNING #3640
Description: Antibacterial activity against Klebsiella pneumoniae MDR ATCC 70063 (CO-ADD:GN_003); MIC in CAMBH media using NBS plates, by OD(600)

Pseudomonas aeruginosa [2] = experiment: microbe, parasite or virus in culture; details: ATCC 27853, 18 h, ASSAY_TEST Inhibition of Bacterial Growth, detection method Absorption (OD600), MEDIA CAMHB, plate type 384well, NBS, CORNING #3640
Description: Antibacterial activity against Pseudomonas aeruginosa ATCC 27853 (CO-ADD:GN_042); MIC in CAMBH media using NBS plates, by OD(600)

Acinetobacter baumannii = experiment: microbe, parasite or virus in culture; details: ATCC 19606, 18 h, ASSAY_TEST Inhibition of Bacterial Growth, detection method Absorption (OD600), MEDIA CAMHB, plate type 384well, NBS, CORNING #3640
Description: Antibacterial activity against Acinetobacter baumannii ATCC 19606 (CO-ADD:GN_034); MIC in CAMBH media using NBS plates, by OD600

Candida albicans = experiment: microbe, parasite or virus in culture; details: ATCC 90028, ASSAY_TEST Inhibition of Fungal Growth, detection method Absorption (OD530), plate type 384well, NBS, CORNING #3640
Description: Antifungal activity against Candida albicans ATCC 90028 (CO-ADD:FG_001); MIC in YNB media using NBS plates, by OD630

Description for Cryptococcus neoformans: Antifungal activity against Cryptococcus neoformans H99 ATCC 208821 (CO-ADD:FG_002); MIC in YNB media using NBS plates, by Resazurin OD(600-570)

Structure (SMILES) | MIC (Pseudomonas aeruginosa [1]) [µM] | MIC (Cryptococcus neoformans) [µM] | MIC (Staphylococcus aureus) [µM] | MIC (Escherichia coli) [µM] | MIC (Klebsiella pneumoniae) [µM] | MIC (Pseudomonas aeruginosa [2]) [µM] | MIC (Acinetobacter baumannii) [µM] | MIC (Candida albicans) [µM] | CC50 (HEK293) [µM]
CCCC(=O)OCCc1ccccc1 | > 20 | > 20 | > 20 | > 20 | > 20 | > 20 | > 20 | > 20 | > 20
CC(C)(C)c1cc(C(=O)/C(C#N)=N/Nc2cccc(Cl)c2)no1 | > 20 | > 20 | > 20 | > 20 | > 20 | > 20 | > 20 | > 20 | > 20
c1ccc(Cn2c(-c3ccccn3)nc3ccccc32)cc1 | > 20 | > 20 | > 20 | > 20 | > 20 | > 20 | > 20 | > 20 | > 20
CC(=N)N1CC[C@H](SC2=C(C(=O)O)N3C(=O)[C@@H]([C@@H](C)O)[C@H]3C2)C1 | > 20 | > 20 | > 20 | > 20 | > 20 | > 20 | > 20 | > 20 | > 20
CCCCCOc1ccc(/C=C2\Oc3c(ccc(O)c3O)C2=O)c(O)c1 | > 20 | > 20 | > 20 | > 20 | > 20 | > 20 | > 20 | > 20 | > 20
N=C(N)c1ccc(COc2ccc(Cl)cc2)cc1 | > 20 | > 20 | > 20 | > 20 | > 20 | > 20 | > 20 | > 20 | > 20
Nc1nnnn1CCOc1c2[nH]c3ccc(Cl)cc3c2cc2c1[nH]c1ccc(Cl)cc12 | > 20 | > 20 | > 20 | > 20 | > 20 | > 20 | > 20 | > 20 | 19.9
O=C(N[C@H](CCS)C(=O)N[C@H](Cc1ccccc1)C(=O)O)c1cc2ccccc2[nH]1 | > 20 | > 20 | > 20 | > 20 | > 20 | > 20 | > 20 | > 20 | > 20
C[C@@H]1O[C@@H]1P(=O)(O)O | > 20 | > 20 | > 20 | > 20 | > 20 | > 20 | > 20 | > 20 | > 20
NC1(C(=O)O)CCP(=O)(O)CC1 (stereo unspecified) | > 20 | > 20 | > 20 | > 20 | > 20 | > 20 | > 20 | > 20 | > 20
CCc1nc2ccccn2c1C(=O)NCc1ccccc1 | > 20 | > 20 | > 20 | > 20 | > 20 | > 20 | > 20 | > 20 | > 20
C[C@H]1CC[C@@]2(O)C(C)(C)[C@@H]3CC[C@@]2(C)[C@H]1C3 | > 20 | > 20 | > 20 | > 20 | > 20 | > 20 | > 20 | > 20 | > 20
Nc1cc(N)c2nc(-c3ccccc3)c(Nc3ccc(F)cc3)nc2c1 | > 20 | > 20 | > 20 | > 20 | > 20 | > 20 | > 20 | > 20 | 1.91

Further lines, with some results ahead:

MIC (Pseudomonas aeruginosa [1]) [µM] | MIC (Cryptococcus neoformans) [µM] | MIC (Staphylococcus aureus) [µM] | MIC (Escherichia coli) [µM] | MIC (Klebsiella pneumoniae) [µM] | MIC (Pseudomonas aeruginosa [2]) [µM] | MIC (Acinetobacter baumannii) [µM] | MIC (Candida albicans) [µM] | Structure (SMILES) | CC50 (HEK293) [µM]
> 20 | > 20 | > 20 | > 20 | > 20 | > 20 | > 20 | > 20 | Fc1ccc(-c2nc(-c3c[nH]c4ccc(Br)cc34)[nH]c2-c2ccc(F)cc2)cc1 | 9.15
> 20 | > 20 | > 20 | > 20 | > 20 | > 20 | > 20 | > 20 | CC(C)(C)c1ccc(OCCn2nc(C(=O)O)c3ccccc3c2=O)cc1 | > 20
> 20 | > 20 | > 20 | > 20 | > 20 | > 20 | > 20 | > 20 | O=C(NCc1ccc2c3c(cccc13)C(=O)N2)c1cccs1 | > 20
> 20 | > 20 | > 20 | > 20 | > 20 | > 20 | > 20 | > 20 | CC1CN(c2ncnc3c2c(-c2ccccc2)cn3-c2ccc(F)cc2)CC(C)O1 (stereo unspecified) | > 20
> 20 | > 20 | > 20 | > 20 | > 20 | > 20 | > 20 | > 20 | COc1ccc(SCC(=O)N2c3ccccc3Sc3ccccc32)cc1 | > 20
> 20 | > 20 | > 20 | > 20 | > 20 | > 20 | > 20 | > 20 | O=S(=O)(Nc1ccc(-n2cccc2)cc1)c1ccc(Cl)c(Cl)c1 | > 20
> 20 | > 20 | > 20 | > 20 | > 20 | > 20 | > 20 | > 20 | CC(C)(C)c1cc(CCC(=O)N2CCC2)cc(C(C)(C)C)c1O | > 20
> 20 | > 20 | > 20 | > 20 | > 20 | > 20 | > 20 | > 20 | Clc1cccc(-c2nnc(-c3ccccc3)o2)c1 | > 20
> 20 | > 20 | > 20 | > 20 | > 20 | > 20 | > 20 | > 20 | OCCCCn1cnc2c(O)nc(NCc3ccc(Cl)c(Cl)c3)nc21 | > 20
> 20 | > 20 | > 20 | > 20 | > 20 | > 20 | > 20 | > 20 | O=C(O)c1ccc(-c2ccc(O[C@H]3O[C@H](CO)[C@@H](O)[C@H](O)[C@@H]3O)cc2)cc1 | > 20
> 20 | > 20 | > 20 | > 20 | > 20 | > 20 | > 20 | > 20 | O=C(CCCC(F)(F)F)N1CCC(c2nc(-c3nccs3)no2)CC1 | > 20
> 20 | ≤ 0.156 | 10 (≈ 4.22 µg/mL) | > 20 | > 20 | > 20 | > 20 | 0.625 (≈ 0.264 µg/mL) | Nc1nc(Nc2ccc3nc(-c4ccc(F)cc4)cc(N)c3c2)cc(-c2ccccc2)n1 | 0.751
> 20 | > 20 | 1.25 (≈ 0.31 µg/mL) | 1.25 (≈ 0.31 µg/mL) | 20 (≈ 4.97 µg/mL) | 2.5 (≈ 0.621 µg/mL) | > 20 | > 20 | CCc1cc(O)c(Oc2cccnc2N)cc1F | > 20
> 20 | > 20 | 20 (≈ 11.1 µg/mL) | > 20 | > 20 | > 20 | > 20 | > 20 | COc1c(NC(=O)[C@H]2CC[C@@H](COc3ccc([N+](=O)[O-])cc3)CC2)c(F)cc2c(=O)c(C(=O)O)cn(C3CC3)c12 | > 20
> 20 | > 20 | > 20 | > 20 | > 20 | > 20 | > 20 | > 20 | O=S(=O)(Nc1cccc2cccnc12)c1ccccc1 | 2.25
> 20 | > 20 | > 20 | > 20 | > 20 | > 20 | > 20 | > 20 | Cc1nc(-c2ccc(C3N(C)c4ccc(F)cc4C(=O)N3c3ccccc3)s2)cs1 (stereo unspecified) | > 20

From ChEMBL document CHEMBL4513161, “CO-ADD screening of MMV (CH) - Pandemic Response Box” (2021)
